# Test results published in US20230146455A1, “TREATMENT OF INFLAMMATORY DISEASES WITH PEPTIDES AND PHARMACEUTICAL COMPOSITIONS” (Yuyu Pharma, Inc., priority 2020, published 2023).
# “And” between values parts separate entries of the source, which are not always exact repeats. Equal entries are not always repeated. “Also recorded” adds a separate entry of the source. Where a SMILES comes first, the peptide text is derived from it. [ ]: non-standard residue; d: D form. Hyp = O=C(O)[C@@H]1C[C@@H](O)CN1
# System: human PBMCs
# Assay: PBMC cell counts (total, live, viability; trypan blue, Countess) with and without LPS and test articles (Example 9)
# Type: cell-based
# Method: Treatment Human PBMCs were pretreated with YY-101, YDE-011 and YDE-043 or reference compound; Xiidra® at various concentration (ranging from 1 nM to 100 uM) for 2 h before stimulation. An equal volume of 0.5% DMSO was used as a vehicle control. Then, the cells were treated with LPS at 5 ug/ml. The supernatants from treated cells were harvested at 24 h and placed in a 96 well for Luminex cytokine & chemokine profiling using a Luminex 200 multiplex assay (Luminex; R&D system, USA).
# The main study arm with triplicate wells per group in a 24-well plate: • 1. Blank • 2. PBMC: 0.5% DMSO • 3. PBMC+LPS (5 ug/ml) • 4. PBMC+YY-101 100 uM • 5. PBMC+YY-101 10 uM • 6. PBMC+YY-101 1 uM • 7. PBMC+YY-101 0.1 uM • 8. PBMC+YY-101 0.01 uM • 9. PBMC+LPS (5 ug/ml)+Xiidra®100 uM • 10. PBMC+LPS (5 ug/ml)+Xiidra® 10 uM • 11. PBMC+LPS (5 ug/ml)+Xiidra® 1 uM • 12. PBMC+LPS (5 ug/ml)+Xiidra®0.1 uM • 13. PBMC+LPS (5 ug/ml)+Xiidra®0.01 uM • 14. PBMC+LPS (5 ug/ml)+Xiidra®0.001 uM • 15. PBMC+LPS (5 ug/ml)+YY-101 100 uM • 16. PBMC+LPS (5 ug/ml)+YY-101 10 uM • 17. PBMC+LPS (5 ug/ml)+YY-101 1 uM • 18. PBMC+LPS (5 ug/ml)+YY-101 0.1 uM • 19. PBMC+LPS (5 ug/ml)+YY-101 0.01 uM • 20. PBMC+LPS (5 ug/ml)+YY-101 0.001 uM • 21. PBMC+LPS (5 ug/ml)+YDE-011 100 uM • 22. PBMC+LPS (5 ug/ml)+YDE-011 10 uM • 23. PBMC+LPS (5 ug/ml)+YDE-011 1 uM • 24. PBMC+LPS (5 ug/ml)+YDE-011 0.1 uM • 25. PBMC+LPS (5 ug/ml)+YDE-011 0.01 uM • 26. PBMC+LPS (5 ug/ml)+YDE-011 0.001 uM • 27. PBMC+LPS (5 ug/ml)+YDE-043 100 uM • 28. PBMC+LPS (5 ug/ml)+YDE-043 10 uM • 29. PBMC+LPS (5 ug/ml)+YDE-043 1 uM • 30. PBMC+LPS (5 ug/ml)+YDE-043 0.1 uM • 31. PBMC+LPS (5 ug/ml)+YDE-043 0.01 uM • 32. PBMC+LPS (5 ug/ml)+YDE-043 0.001 uM
# The number of PBMCs was measured after 24 hr of treatment. The culture both and trypan blue were diluted 1:1 and 10 ul was added to Countess cell counting chamber (Thermo fisher, USA). The number of PBMCs was measured using a Countess automated cell counter (Thermo fisher, USA).
# [1] = PBMC + LPS(5 ug/ml), test article 100 uM, Mean
# [2] = PBMC + LPS(5 ug/ml), test article 100 uM, single replicates
# [3] = PBMC + compound 0.01 uM, no LPS, 24 hr
# [4] = PBMC + compound 0.1 uM, no LPS, 24 hr
# [5] = PBMC + compound 1 uM, no LPS, 24 hr
# [6] = PBMC + compound 10 uM, no LPS, 24 hr
# [7] = PBMC + compound 100 uM, no LPS, 24 hr
# [8] = PBMC + test article 0.01 uM, no LPS, Mean
# [9] = PBMC + test article 0.01 uM, no LPS, single replicates
# [10] = PBMC + test article 0.1 uM, no LPS, Mean
# [11] = PBMC + test article 0.1 uM, no LPS, single replicates
# [12] = PBMC + test article 1 uM, no LPS, Mean
# [13] = PBMC + test article 1 uM, no LPS, single replicates
# [14] = PBMC + test article 10 uM, no LPS, Mean
# [15] = PBMC + test article 10 uM, no LPS, single replicates
# [16] = PBMC + test article 100 uM, no LPS, Mean
# [17] = PBMC + test article 100 uM, no LPS, single replicates
# [18] = PBMC without LPS, test article 0.01 uM, Mean
# [19] = PBMC without LPS, test article 0.01 uM, single replicates
# [20] = PBMC without LPS, test article 0.1 uM, Mean
# [21] = PBMC without LPS, test article 0.1 uM, single replicates
# [22] = PBMC without LPS, test article 1 uM, Mean
# [23] = PBMC without LPS, test article 1 uM, single replicates
# [24] = PBMC without LPS, test article 10 uM, Mean
# [25] = PBMC without LPS, test article 10 uM, single replicates
# [26] = PBMC without LPS, test article 100 uM, Mean
# [27] = PBMC without LPS, test article 100 uM, single replicates
compound,measurement,setting,value
CC(C)C[C@H](NC(=O)CNC(=O)[C@H](CC(=O)O)NC(=O)[C@H](CCC(N)=O)NC(=O)CNC(=O)[C@@H]1C[C@@H](O)CN1)C(=O)N[C@@H](C)C(=O)NCC(=O)N1CCC[C@H]1C(=O)N[C@@H](CCCCN)C(=O)O [YY-101] (H-[Hyp]GQDGLAGPK-OH; N-terminus and C-terminus assumed),Live cell,[1],5.8 10^5/ml
same,Total cell count,[1],7.8 10^5/ml
same,Live cell,[2],6.3 10^5/ml and 6.2 10^5/ml and 5.0 10^5/ml
same,Total cell count,[2],8.7 10^5/ml and 8.8 10^5/ml and 5.8 10^5/ml
same,Viability,[2],73.0% and 70.0% and 87.0%
same,Live cell,[3],5.0 ± 0.2 10^5/ml
same,Total cell,[3],5.9 ± 0.4 10^5/ml
same,Live cell,[4],5.1 ± 0.2 10^5/ml
same,Total cell,[4],6.1 ± 0.8 10^5/ml
same,Live cell,[5],5.5 ± 0.0 10^5/ml
same,Total cell,[5],6.1 ± 0.2 10^5/ml
same,Live cell,[6],6.3 ± 0.2 10^5/ml
same,Total cell,[6],7.4 ± 0.3 10^5/ml
same,Live cell,[7],6.7 ± 0.3 10^5/ml
same,Total cell,[7],7.8 ± 0.5 10^5/ml
same,Live cell,[8],5.0 10^5/ml
same,Live cell (10^5/ml),[8],5.0 10^5/ml
same,"Live cell, Mean",[8],5.0 10^5/ml
same,Live cell,"PBMC + test article 0.01 uM, no LPS, individual replicates (1st, 2nd)",5.2 10^5/ml and 4.8 10^5/ml
same,Live cell,[9],5.2 10^5/ml and 4.8 10^5/ml
same,Live cell (10^5/ml),[9],5.2 10^5/ml and 4.8 10^5/ml
same,Live cell,"PBMC + test article 0.01 uM, no LPS, single replicates (1st, 2nd)",5.2 10^5/ml and 4.8 10^5/ml
same,Live cell,[10],5.1 10^5/ml
same,Live cell (10^5/ml),[10],5.1 10^5/ml
same,"Live cell, Mean",[10],5.1 10^5/ml
same,Live cell,"PBMC + test article 0.1 uM, no LPS, individual replicates (1st, 2nd)",4.4 10^5/ml and 5.8 10^5/ml
same,Live cell,[11],4.4 10^5/ml and 5.8 10^5/ml
same,Live cell (10^5/ml),[11],4.4 10^5/ml and 5.8 10^5/ml
same,Live cell,"PBMC + test article 0.1 uM, no LPS, single replicates (1st, 2nd)",4.4 10^5/ml and 5.8 10^5/ml
same,Live cell,[12],5.5 10^5/ml
same,Live cell (10^5/ml),[12],5.5 10^5/ml
same,"Live cell, Mean",[12],5.5 10^5/ml
same,Live cell,"PBMC + test article 1 uM, no LPS, individual replicates (1st, 2nd)",5.5 10^5/ml
same,Live cell,[13],5.5 10^5/ml
same,Live cell (10^5/ml),[13],5.5 10^5/ml
same,Live cell,"PBMC + test article 1 uM, no LPS, single replicates (1st, 2nd)",5.5 10^5/ml
same,Live cell,[14],6.3 10^5/ml
same,Live cell (10^5/ml),[14],6.3 10^5/ml
same,"Live cell, Mean",[14],6.3 10^5/ml
same,Live cell,"PBMC + test article 10 uM, no LPS, individual replicates (1st, 2nd)",6.4 10^5/ml and 6.1 10^5/ml
same,Live cell,[15],6.4 10^5/ml and 6.1 10^5/ml
same,Live cell (10^5/ml),[15],6.4 10^5/ml and 6.1 10^5/ml
same,Live cell,"PBMC + test article 10 uM, no LPS, single replicates (1st, 2nd)",6.4 10^5/ml and 6.1 10^5/ml
same,Live cell,[16],6.7 10^5/ml
same,Live cell (10^5/ml),[16],6.7 10^5/ml
same,"Live cell, Mean",[16],6.7 10^5/ml
same,Live cell,"PBMC + test article 100 uM, no LPS, individual replicates (1st, 2nd)",6.4 10^5/ml and 7.0 10^5/ml
same,Live cell,[17],6.4 10^5/ml and 7.0 10^5/ml
same,Live cell (10^5/ml),[17],6.4 10^5/ml and 7.0 10^5/ml
same,Live cell,"PBMC + test article 100 uM, no LPS, single replicates (1st, 2nd)",6.4 10^5/ml and 7.0 10^5/ml
same,Live cell,"PBMC without LPS, 0.01 uM, Mean",5.0 10^5/ml
same,Live cell,"PBMC without LPS, 0.01 uM, single replicates",5.2 10^5/ml and 4.8 10^5/ml
same,Live cell,"PBMC without LPS, 0.1 uM, Mean",5.1 10^5/ml
same,Live cell,"PBMC without LPS, 0.1 uM, single replicates",4.4 10^5/ml and 5.8 10^5/ml
same,Live cell,"PBMC without LPS, 1 uM, Mean",5.5 10^5/ml
same,Live cell,"PBMC without LPS, 1 uM, single replicates",5.5 10^5/ml
same,Live cell,"PBMC without LPS, 10 uM, Mean",6.3 10^5/ml
same,Live cell,"PBMC without LPS, 10 uM, single replicates",6.4 10^5/ml and 6.1 10^5/ml
same,Live cell,"PBMC without LPS, 100 uM, Mean",6.7 10^5/ml
same,Live cell,"PBMC without LPS, 100 uM, single replicates",6.4 10^5/ml and 7.0 10^5/ml
same,Live cell,[18],5.0 10^5/ml
same,Total cell count,[18],5.9 10^5/ml
same,Live cell,[19],5.2 10^5/ml and 4.8 10^5/ml
same,Total cell count,[19],6.3 10^5/ml and 5.5 10^5/ml
same,Viability,[19],83.0% and 87.0%
same,Live cell,[20],5.1 10^5/ml
same,Total cell count,[20],6.1 10^5/ml
same,Viability,[20],84.0%
same,Live cell,[21],4.4 10^5/ml and 5.8 10^5/ml
same,Total cell count,[21],5.2 10^5/ml and 6.9 10^5/ml
same,Viability,[21],84.0%
same,Live cell,[22],5.5 10^5/ml
same,Total cell count,[22],6.1 10^5/ml
same,Live cell,[23],5.5 10^5/ml
same,Total cell count,[23],5.9 10^5/ml and 6.3 10^5/ml
same,Viability,[23],92.0% and 87.0%
same,Live cell,[24],6.3 10^5/ml
same,Total cell count,[24],7.4 10^5/ml
same,Live cell,[25],6.4 10^5/ml and 6.1 10^5/ml
same,Total cell count,[25],7.6 10^5/ml and 7.1 10^5/ml
same,Viability,[25],85.0% and 87.0%
same,Live cell,[26],6.7 10^5/ml
same,Total cell count,[26],7.8 10^5/ml
same,Live cell,[27],6.4 10^5/ml and 7.0 10^5/ml
same,Total cell count,[27],7.3 10^5/ml and 8.2 10^5/ml
same,Viability,[27],88.0% and 85.0%
same,viability / total number of PBMCs (in words),up to 100 μM,didn't affect the basal levels of most of cytokine/chemokine production or the viability of hPBMCs; also recorded: didn't affect any viability or the total number of PBMCs
same,which treatments consistently affected the total and live number of PBMCs or the percent viability (in words),"up to 100 μM, 24-hour treatment",none of
